Experimental data taken from patent US20200023031A1, “COMPOSITION FOR ANTI-PANCREATIC CANCER AND ANTI-PANCREATIC ADJUVANT COMPRISING ALLOFERON” (AT-Pharma Co., Ltd., priority 2018, published 2020).

Experiments:
[1] = system: AsPC-1 pancreatic ductal adenocarcinoma cell line; assay: Annexin V apoptosis assay, AsPC-1; format: cell-based
Protocol: (§1) AsPC-1 (FIG. 4(a)) and Panc-1 (FIG. 4(b)), two pancreatic ductal adenocarcinoma cell line, were cultured for week in the presence or absence of […] of alloferon, and then 5×10^5 cells were cultured with 250 nM of gemcitabine for 36 hrs. To investigate whether alloferon increases the sensitivity of these cell lines against gemcitabine, the degree of cell death was examined by an Annexin V-7AAD assay. Cells were collected and washed three times with cold phosphate-buffered saline (PBS) and then resuspended in 1× Annexin V binding buffer at a concentration of 1×10^6 cells/ml (BD Biosciences). Transfer 100 μl of the solution (1×10^5 cells) to a 5 ml culture tube. Add 5 μl of FITC-conjugated Annexin V and incubated for 15 min at room temperature in the dark. Add 400 μl of 1× Annexin V binding buffer to each tube. After 1 μl of propidium iodide (PI) was added just prior to analyze by flow cytometry. Apoptotic cells were analyzed with LSRII flow cytometer (BD Biosciences) with excitation at 488 nm and emission at 525 nm.

[2] = system: Panc-1 pancreatic ductal adenocarcinoma cell line; assay: Annexin V apoptosis assay, Panc-1; format: cell-based
Protocol: as §1

Panc-1 cells = assay: Panc-1 xenograft model in Balb/C (nu/nu) mice; format: in vivo
Protocol: (§2) The anti-tumor effect of concomitant alloferon and gemcitabine treatment was also assessed by using xenograft animal model.
(§3) Tumor burdens from each experimental animals were excised and compared its volumes (FIG. 8).

AsPC-1 cells [3] = assay: Mitochondrial membrane potential assay, DiOC6(3) staining; format: cell-based; conditions: 0.5 mg/ml alloferon for week, 250 nM gemcitabine 36 hours
Protocol: The effect of adjuvant treatment of alloferon and gemcitabine on mitochondrial function was also studied. AsPC-1 cells were cultured for week in the presence or absence of 0.5 mg/ml of alloferon. Then 5×10^5 cells were cultured with 250 nM of gemcitabine for 36 hours. The synergistic effect of alloferon with gemcitabine on the decrease of mitochondrial membrane potential, a general phenomenon associated with cell death by chemotherapeutic drugs, was investigated by staining with DiOC6(3), a green-fluorescent, lipophilic dye (ThermoFisher Scientific). Cells were collected and washed three times with PBS. Then 1×10^6 cells were resuspended in 1 ml freshly prepared 4% paraformaldehyde diluted from stock using PBS for 10 minutes at room temperature and then washed with 1 ml pre-warmed (37° C.) PBS three times. The DiOC6 stock solution was diluted into PBS to make 0.1 μM working solution. The cells were suspended at a density of 1×10^6 cells/ml in dye working solution and protected from light. The cells were incubated at 37° C. for 15 minutes. The cell suspensions were centrifuged at 130×g for 5 minutes. The supernatant was removed and the cells were gently resuspended in 1 ml pre-warmed PBS. The cells were analyzed with LSRII flow cytometer (BD Biosciences) with excitation at 488 nm and emission at 525 nm.

AsPC-1 cells [4] = assay: AsPC-1 xenograft model in Balb/C (nu/nu) mice; format: in vivo
Protocol: as §2, §3

[5] = gemcitabine 250 nM for 36 hrs, alloferon 0.5 μg/ml for a week
[6] = subcutaneous, female Balb/C (nu/nu), calipers every 3-4 days

With `Nc1ccn([C@@H]2O[C@H](CO)[C@@H](O)C2(F)F)c(=O)n1` [gemcitabine] the “cytotoxic effects, ASPC-1” value ([1]; gemcitabine 250 nM) was “do not have cytotoxic effects”, the “apoptosis, AsPC-1” value [1, 5] was “do not induce apoptosis” and the “cytotoxic effects, PANC-1” value ([2]; gemcitabine 250 nM) was “do not have cytotoxic effects”. The “apoptosis, Panc-1” value [2, 5] was “do not induce apoptosis”, the “tumor growth (tumor volume), Panc-1 xenograft” value (Panc-1 cells; [6]) was “does not effectively suppress growth” and the “excised tumor burden volume, Panc-1 xenograft” value (Panc-1 cells; tumor burdens excised, FIG. 8) was “does not effectively suppress growth”. The “mitochondrial membrane potential / mitochondrial dysfunction” value (AsPC-1 cells [3]) was “does not induce mitochondrial dysfunction”, the “tumor growth (tumor volume), AsPC-1 xenograft” value (AsPC-1 cells [4]; [6]) was “does not effectively suppress growth” and the “excised tumor burden volume, AsPC-1 xenograft” value (AsPC-1 cells [4]; tumor burdens excised, FIG. 8) was “does not effectively suppress growth”.
